Experimental data as given in US20250019369A1, “N-(4-aminocyclohexyl)pyrimidine-4-carboxamide derivatives as CD38 inhibitors” (Cerevance, Inc., priority 2021, published 2025).
Where two headings read alike, the source gives them in different places.

Key:
[1] = Tissue binding assay, brain homogenate (equilibrium dialysis); type: in vitro ADME; settings: dialysis 4 hours at 37° C., dilution factor 4
Procedure: Buffer preparation. A basic solution was prepared by dissolving 14.2 g/L Na2HPO4 and 8.77 g/L NaCl in deionized H2O. An acidic solution was prepared by dissolving 15.6 g/L NaH2PO4·2H2O and 8.77 g/L NaCl in deionized H2O. Using the acidic solution, the basic solution was then titrated to pH 7.4±0.1 and stored at 4° C. for up to 1 month. The stop solution was 100% CH3CN containing 200 ng/mL tolbutamide, 200 ng/mL labetalol and 50 ng/mL metformin.
Test method. Dialysis membrane strips were soaked in ultra-pure water at room temperature for ˜1 hour. Each membrane strip containing 2 membranes was separated and soaked in 20:80 EtOH/H2O (v/v) for ˜20 min, after which they were ready for use or were stored in the solution at 2-8° C. for up to 1 month. Prior to the experiment, the membrane was rinsed and soaked for 20 min in ultra-pure water. On the day of experiment, brain homogenate was thawed in a water bath at room temperature and incubated at 37° C. for 10 min before use. Test and control compounds were dissolved in DMSO to achieve 10 mM stock solutions. DMSO working solutions were prepared at 400 μM by diluting 10 μL of stock solution. To prepare the time zero (t=0) samples to be used for recovery determination, 50 μL aliquots of loading matrix were transferred in triplicate to the sample collection plate. The samples were immediately matched with opposite blank buffer to obtain a final volume of 100 μL of 1:1 matrix/dialysis buffer (v/v) in each well. 500 μL of stop solution were added to these t=0 samples. They were then stored at 2-8° C. pending further processes along with other post-dialysis samples. To load the dialysis device, an aliquot of 150 μL of the loading matrix was transferred to the donor side of each dialysis well in triplicate, and 150 μL of the dialysis buffer was loaded to the receiver side of the well. The dialysis plate was placed in a humidified incubator at 37° C. with 5% CO2 on a shaking platform that rotated slowly (about 100 rpm) for 4 hours. At the end of the dialysis, aliquots of 50 μL of samples were taken from both the buffer side and the matrix side of the dialysis device. These samples were transferred into new 96-well plates. Each sample was mixed with an equal volume of opposite blank matrix (buffer or matrix) to reach a final volume of 100 μL of 1:1 matrix/dialysis buffer (v/v) in each well. All samples were further processed by adding 500 μL of stop solution containing internal standards. The mixture was vortexed and centrifuged at 4000 rpm for about 20 min. An aliquot of 100 μL of supernatant of all the samples was then removed for LC-MS/MS analysis. The single blank samples were prepared by transferring 50 μL of blank matrix to a 96-well plate and adding 50 μL of blank PBS buffer to each well. Then the matrix-matched samples were further processed by adding 500 μL of stop solution containing internal standards, following the same sample processing method as the dialysis samples.
Data analysis. The % undiluted unbound, % undiluted bound and % recovery were calculated using the following equations:
% Undiluted Unbound=100*1/D/((1/(F/T)−1)+1/D)
% Undiluted Bound=100−% Undiluted Unbound
where F is the analyte concentration or peak area ratio of analyte/internal standard on the buffer (receiver) side of the membrane; T is the analyte concentration or peak area ratio of analyte/internal standard on the matrix (donor) side of the membrane; To is the analyte concentration or the peak area ratio of analyte/internal standard in the loading matrix sample at time zero; and D is the dilution factor determined as 4 in this assay.

[2] = PK brain permeability in C57BL/6 mice after single oral gavage; type: in vivo; settings: 2 hours post dose; for concentration at 2 h / Kpu,u (unbound brain/plasma partition coefficient) at 2 h: male, C57BL/6, mouse; for concentration at 2 h: po, 10 mg/kg; for Kpu,u (unbound brain/plasma partition coefficient) at 2 h / brain permeability (in words): oral 10 mg/kg; for Kpu,u (unbound brain/plasma partition coefficient) at 2 h: read-out: Kpu,u (unbound partitioning coefficient, Cb,u/Cp,u); for brain permeability (in words): comment on Table 3
Procedure: The distribution of compounds into the brain in vivo was determined in C57BL/6 mice following single oral (po) gavage administration.
Test compounds were formulated at 1 mg/mL in 0.5% HPMC E4 M, 0.2% Tween 80 in water to achieve solutions or homogenous suspensions suitable for po administration.
Formulations were administered to 3 male C57BL/6 mice at a volume of 10 mL/kg resulting in a dose level of 10 mg/kg. Blood samples were collected at 1 and 2 hours post dose into tubes containing K2EDTA as anticoagulant, processed to plasma and stored at −60° C. or lower until LC-MS/MS analysis. Brains were harvested 2 hours post dose, rinsed with saline, dried, weighed and homogenised under ice cold conditions. Brain homogenates were stored at −60° C. or lower until LC-MS/MS analysis.
Dose formulation concentrations were verified using a LC-UV or LC-MS/MS method. Test compound concentrations in plasma and brain homogenate were quantitatively determined using LC-MS/MS methods developed in individual matrices against calibration curves with QC samples included and acceptance criteria as per CRO SOPs. Concentrations in brain homogenate were corrected for the dilution factor used to prepare the homogenate to give concentrations in whole brain tissue.
Plasma and brain concentration versus time data were reported and plotted in excel. The brain to plasma ratio at 2 hours post dose was calculated for each animal using the following equation:
Brain:plasma=brain concentration (ng/g) at 2 h/plasma concentration (ng/mL) at 2 h
As only unbound test compound is available to exert an effect on the target, unbound plasma (Cp,u) and unbound brain (Cb,u) concentrations were calculated by correcting the total concentrations for the unbound fraction in plasma (fu,p) or brain (fu,b) determined from in vitro plasma protein or brain tissue binding assays using the following equations: […]
The unbound partitioning coefficient (Kpu,u) was then calculated based on the ratio of Cb,u to Cp,u using the following equation: […]
In these studies, mice were orally administrated a 10 mg/kg dose and sacrificed 2 hours post dose and tissue samples (brain homogenate and plasma) were analyzed subsequently as described above.

[3] = brain, read-out: total brain conc.
[4] = brain, total corrected for unbound fraction in brain, read-out: free brain conc.
[5] = plasma, read-out: total plasma conc.
[6] = plasma, total corrected for unbound fraction in plasma, read-out: free plasma conc.

For `Cc1cc(C(=O)N[C@H]2CC[C@H](NCC(F)(F)F)CC2)nc(-n2ccnc2)n1` [Example 1, 2-(1H-imidazol-1-yl)-6-methyl-N-((1r,4r)-4-((2,2,2-trifluoroethyl)amino)cyclohexyl)pyrimidine-4-carboxamide], the “Mouse brain (% unbound)” value [1] was 68.9 % unbound, the concentration at 2 h [2, 3] was 5510 nM and the concentration at 2 h [2, 4] was 3800 nM. For the same compound, the Kpu,u (unbound brain/plasma partition coefficient) at 2 h [2] was 1.33, the concentration at 2 h [2, 5] was 21900 nM and the concentration at 2 h [2, 6] was 2850 nM.
With `Cc1cc(C(=O)N[C@H]2CC[C@H](NCC(F)F)CC2)nc(-n2ccnc2)n1` [Example 2, N-((1r,4r)-4-((2,2-difluoroethyl)amino)cyclohexyl)-2-(1H-imidazol-1-yl)-6-methyl-pyrimidine-4-carboxamide] the “Mouse brain (% unbound)” value [1] was 63.4 % unbound, the concentration at 2 h [2, 3] was 2190 nM and the concentration at 2 h [2, 4] was 1390 nM. For the same compound, the Kpu,u (unbound brain/plasma partition coefficient) at 2 h [2] was 0.65, the concentration at 2 h [2, 5] was 9370 nM and the concentration at 2 h [2, 6] was 2130 nM.
For `O=C(N[C@H]1CC[C@H](NCC(F)F)CC1)c1cc(C2CC2)nc(-n2ccnc2)n1` [Example 3, 6-cyclopropyl-N-((1r,4r)-4-((2,2-difluoroethyl)amino)cyclohexyl)-2-(1H-imidazol-1-yl)pyrimidine-4-carboxamide], the “Mouse brain (% unbound)” value [1] was 13.5 % unbound, the concentration at 2 h [2, 3] was 1660 nM and the concentration at 2 h [2, 4] was 224 nM. For the same compound, the Kpu,u (unbound brain/plasma partition coefficient) at 2 h [2] was 0.48, the concentration at 2 h [2, 5] was 6390 nM and the concentration at 2 h [2, 6] was 469 nM.
In the case of `Cc1cc(C(=O)N[C@H]2CC[C@H](N3CCC(F)(F)C3)CC2)nc(-n2ccnc2)n1` [Example 10, N-((1r,4r)-4-(3,3-difluoropyrrolidin-1-yl)cyclohexyl)-2-(1H-imidazol-1-yl)-6-methyl-pyrimidine-4-carboxamide], the “Mouse brain (% unbound)” value [1] is reported as 9.7 % unbound, the concentration at 2 h [2, 3] is reported as 5200 nM and the concentration at 2 h [2, 4] is reported as 507 nM. It also gave a Kpu,u (unbound brain/plasma partition coefficient) at 2 h [2] of 0.32, a concentration at 2 h [2, 5] of 15100 nM and a concentration at 2 h [2, 6] of 1610 nM. For the same compound, the “brain permeability (in words)” value [2] was “excellent brain permeability”.
With `Cc1cc(C(=O)N[C@H]2CC[C@H](NC(C)(C)C(F)(F)F)CC2)nc(-n2ccnc2)n1` [Example 21, 2-(1H-imidazol-1-yl)-6-methyl-N-((1r,4r)-4-((1,1,1-trifluoro-2-methylpropan-2-yl)amino)cyclohexyl)pyrimidine-4-carboxamide] the “Mouse brain (% unbound)” value [1] was 3.6 % unbound, the concentration at 2 h [2, 3] was 5470 nM and the concentration at 2 h [2, 4] was 197 nM. The Kpu,u (unbound brain/plasma partition coefficient) at 2 h [2] was 0.4, the concentration at 2 h [2, 5] was 11900 nM and the concentration at 2 h [2, 6] was 494 nM. For the same compound, the “brain permeability (in words)” value [2] was “excellent brain permeability”.
